# Measurements published in a melting point compilation (Tetko et al.; mined from patent text by program, amines drawn as free bases though some values may be those of a salt).
row,melting point [°C],Structure (SMILES)
1,166 to 168,COC(=O)C1CCCN1S(N)(=O)=O (stereo unspecified)
2,68,C=C(C)C(=O)OCCCOc1ccc2cc(OC(=O)C(=C)C)ccc2c1
3,124 to 126,O=C(OC1CCN(c2ncc(-c3ccccc3Cl)cn2)CC1)N1CCC(O)CC1
4,130 to 134,COC(=O)c1c(S(=O)C(C)C)c2cc(OC)ccc2n1C (stereo unspecified)
5,133 to 136,O=C1CNC(=O)N1CCNCc1ccc(CN2CCCCC2)o1
6,91 to 103,COC(=O)C1=C(C)NC(C)=C(C(=O)OCCCCN(C)CCC(c2ccccc2)c2ccccc2)C1c1cccc([N+](=O)[O-])c1 (stereo unspecified)
7,111 to 112,CC(C)(C)OC(=O)Nc1cc(OCc2ccccc2)c2ccccc2c1I
8,201 to 203,O=C1NC(Cc2cccs2)C(=O)NC1Cc1ccc(OCc2ccccc2)cn1 (stereo unspecified)
9,43 to 44,COC(=O)CCCc1ccc(C(=O)C=Cc2ccccc2)cc1
10,134 to 135,Cc1cc(S(=O)(=O)Nc2ccc(Cl)cc2)c2c(C)ccc(C(C)C)cc1-2
11,100 to 101,Clc1ccc(C2C=Cc3cc(Br)cnc3O2)cc1Cl (stereo unspecified)
12,> 310,O=C1c2ccccc2C(=O)c2c1oc1cc(O)ccc21
13,194,C[C@@H](Oc1cc(-c2cnn(C3CCNCC3)c2)cnc1N)c1c(Cl)ccc(F)c1Cl
14,147 to 149,O=C1c2cscc2Nc2ccccc2N1C1C=CCCC1 (stereo unspecified)
15,153 to 155,CN(C)C(=O)NCC1(C)OCCc2c1[nH]c1ccccc21 (stereo unspecified)
16,222 to 224,Nc1ncccc1-c1nc2ccc(-c3cccnc3)nc2n1-c1ccc(NC(=O)c2ccccc2)cc1
17,88,CCO[C@@H](C)c1nnc([C@H](C)OCC)n1N[C@H](CC)C(OC)OC
18,227 to 229,CN(Cc1ccc(NC(=O)C2=Cc3cc(-c4ccc(OC5CCOCC5)cc4)ccc3S(=O)(=O)CC2)cc1)C1CCOCC1
19,265,O=C(NN=Cc1c(O)ccc2ccccc12)c1ccccc1O
20,108 to 110,CCCCCCCCCCCCCCOc1ccc(CC(=O)Nc2cccc(I)c2)cc1
21,221,N#CC1=C(c2ccccc2)Nc2n[nH]cc2C1c1ccccc1[N+](=O)[O-] (stereo unspecified)
22,122 to 123,Nc1nnc(-c2ccccc2Nc2cccc(C(F)(F)F)c2)s1
23,159 to 161,COc1ccc(-c2ccc(=O)[nH]n2)c(OCC(O)CNC(C)(C)C)c1 (stereo unspecified)
24,130 to 131,Cc1nn(C)c(-c2ccc(F)cc2)c1C=O

row,melting point [°C],Structure (SMILES)
1,72 to 74,COc1ccc2c(Cl)nccc2c1
2,45 to 46.5,COC(=O)CC(=O)C[C@@H]1CC(=O)N1
3,192 to 194,CN1CCC(CCCC2CCN(CC(=O)N3c4ccccc4C(=O)Nc4cccnc43)CC2)CC1
4,186 to 188,Cc1nc(C(=O)O)c(C(=O)NC(C)(C)C)o1
5,214,Cc1[nH]c(=S)n(Nc2cccc([N+](=O)[O-])c2)c1-c1ccccc1
6,155 to 157,CCCn1nc(-c2ccc(F)cc2)c(-c2ccc(S(C)(=O)=O)cc2)cc1=O
7,108,Cc1ccc(N2C(=S)SCC2(C)O)nc1 (stereo unspecified)
8,207,Cc1cccc(NC(=O)NCC(=O)N(CC(=O)OC(C)(C)C)c2ccccc2C(=O)N2CCCC(C)(C)C2)c1
9,135 to 140,COC(=O)C1=C(COCCn2c(C)nc(C)c2C)NC(C)=C(C(=O)Nc2ccccc2)C1c1ccccc1Cl (stereo unspecified)
10,168 to 170,O=c1[nH][nH]c(=O)n1CCCCl
11,201 to 203,COc1cc(NC(=O)CC23CC4CC(CC(C4)C2)C3)c(C)c(OC)c1
12,196 to 197,Cc1cccc(C(=O)Nc2c[nH]nc2C(=O)NCCCO)n1
13,130 to 131,Cc1cc(C)c2ncc([N+](=O)[O-])c(-c3ccccc3Cl)c2c1
14,196,O=S(CCCCCOc1ccc(C2=C(c3ccccc3)CCCc3cc(O)ccc32)cc1)Cc1ccccc1 (stereo unspecified)
15,117 to 118,CCOC(=O)C(=O)CC(=O)/C=C/c1ccc(Cl)cc1
16,109 to 110,Fc1ccc(-c2cc(N3CCN(CC4CC4)CC3)nc3c2CCCCCC3)cc1
17,140 to 143,O=C(O)C1CCc2cc(Cl)c(C3CCCCC3)cc21 (stereo unspecified)
18,72 to 75,O=C(NCCCCCCO)Oc1ccc(Oc2ccccc2)cc1
19,115,O=c1oc(=Cc2ccccc2)c(=Cc2ccccc2)o1
20,218 to 219,COC(=O)c1ccc(-c2nnc(-c3ccc(C(F)(F)F)cc3)s2)cc1
21,207 to 208,On1c(C(F)(F)F)nc2nc(Cl)c(Cl)cc21
22,208 to 210,CCC(CC)n1ncn(-c2ccc(N3CCN(c4ccc5c(=O)n([C@H](C)[C@](O)(Cn6cncn6)c6ccc(F)cc6F)cnc5c4)CC3)cc2)c1=O
23,108 to 109,Cn1cccc1-c1nc(-c2cccnc2)no1
24,200 to 201,CCCn1c(=O)c2[nH]c(C34CCC(C)(C(=O)C3=O)C4(C)C)nc2n(CCC)c1=O (stereo unspecified)

row,melting point [°C],Structure (SMILES)
1,202 to 204,COc1ccc(-c2cc(N3CCCCC3)c(C#N)c3c2-c2ccccc2C3)cc1
2,79 to 80,COc1cc(-c2ncc(C(F)(F)F)cc2F)c(F)cc1Cl
3,172 to 173,CCC(CC)N(O)C(=O)Nc1ccc(Cc2ccc(NC(=O)N(O)C(CC)CC)c(Cl)c2)cc1Cl
4,145 to 147,CC(O)c1ccc(Nc2nccc(-c3cccnc3)n2)cc1 (stereo unspecified)
5,264 to 265,COc1cc2c3c(cccc3c1[N+](=O)[O-])C(=O)N(O)C2=O
6,195 to 196,Cc1nc2cccc3n(CCCCNS(=O)(=O)C(F)(F)F)c(=O)c1n23
7,206 to 209,N=C(N)c1ccc2[nH]cc(CCN3C(=O)c4ccccc4C3=O)c2c1
8,103 to 104,O=Cc1c2ccccc2cc2cccc(SCCO)c12
9,203 to 204,Cc1cc(C(=O)O)sn1
10,166 to 167,c1ccc(-c2nn3ccccc3c2-c2ccncc2)cc1
11,219 to 220,O=c1nc(-c2ccccc2)c2cc([N+](=O)[O-])ccc2n1Cc1cccs1
12,90,CCCCCCCCOc1cnc(-c2ccc(OC(=O)[C@H]3CCCO3)cc2)nc1
13,128 to 130,CC(C)(C)OC(=O)[C@H]1CCCN1S(=O)(=O)c1ccc2c(Br)cnc(Cl)c2c1
14,179 to 180,CCOC(=O)CCc1cc(-c2cc3ccccc3c(=O)o2)ccc1O
15,237 to 238,CC(=O)c1ccc2nc(NC(=O)c3ccc(C(C)(C)C)cc3)cn2n1
16,139 to 142,CS(=O)(=O)c1ccc(-c2cccn2-c2ccc(Cl)c(Cl)c2)cc1
17,197,CS(=O)(=O)C1Cc2cc(Cl)ccc2C1=O (stereo unspecified)
18,151 to 152,CSc1ccc(CC(=O)NC(NC(=NC#N)Nc2ccccc2C)C(C)(C)C)cc1 (stereo unspecified)
19,91 to 97,CC1CN(Cn2cc(C#N)c(-c3cccc(Cl)c3Cl)c2)CC(C)O1 (stereo unspecified)
20,188 to 189,CN(c1cc(F)cc2cc(C3=NCCS3)[nH]c12)S(=O)(=O)c1cccs1
21,112 to 114,COc1ccc2c(c1)CCN(C(=O)Cc1ccc([N+](=O)[O-])cc1)C2C (stereo unspecified)
22,175 to 177,COC(=O)[C@@]1(C)Cc2c([nH]c3ccc(OC)cc23)[C@@H](c2cccc(O)c2)N1 (racemic)
23,79,N#CC1(c2ccncc2)CCCCC1
24,220,O=C(NC(CCc1ccccc1)c1nnc(NS(=O)(=O)c2ccccc2)o1)c1cccc2[nH]c(-c3ccncc3)nc12 (stereo unspecified)

row,melting point [°C],Structure (SMILES)
1,113 to 118,CCOC(=O)C=Cc1csc(Nc2ccccc2)n1
2,82,O=S(=O)(Nc1ccccc1O)c1ccc(Cl)cc1
3,198 to 200,O=C(NO)c1ccc(C(=O)NOCCC23CC4CC(CC(C4)C2)C3)cc1
4,118 to 120,CC(OCCO)n1cc(F)c(=O)[nH]c1=O (stereo unspecified)
5,154,c1ccc2sc(-c3ccnc(Nc4ccc5c(c4)OCCO5)c3)cc2c1
6,88 to 89,CCOc1cc(N)ccn1
7,180 to 185,O=C(O)c1cccc(C(=O)c2ccc(C3CCCCC3)cc2)c1
8,125,CCOC(=O)c1nc(-c2cccnc2)[nH]c1N=NN(C)C
9,170 to 190,CCOC(=O)c1cn(C2CC2)c2c(F)c(N3CC(CNC(C)=O)C3)c(F)cc2c1=O
10,172 to 175,O=C(O)C1CCC(c2ccccc2)n2c(=O)n(CCS)c(=O)n21 (stereo unspecified)
11,327 to 330,NC(=O)c1ccc(N2CCN(c3ccncc3)CC2)cc1
12,115 to 118,CC(O)COc1cccc(N)c1C(N)=O (stereo unspecified)
13,100 to 105,CCN1C(=O)C(C)(C)C(=O)N(C)c2cc(OCCCN3C(=O)C(c4ccccc4)Cc4ccccc43)ccc21 (stereo unspecified)
14,239 to 243,CCNC(=O)c1ccc(N2CCN(Cc3ccc4c(c3)NC(=O)C(C)O4)CC2)c(Cl)c1 (stereo unspecified)
15,215 to 216,CC(C)n1nc(-c2c(NCc3cccnc3)nc(N)nc2-c2ccccc2)ccc1=O
16,> 280,CN1C(=O)Nc2ccc(Cl)cc2C12NC(=O)NC2=O (stereo unspecified)
17,180 to 190,CCC(Br)C(=O)Nc1c(C)cccc1C (stereo unspecified)
18,98 to 102,COC(=O)[C@H](O)[C@@H](NS(=O)(=O)c1c2ccccc2cc2ccccc12)c1ccccc1
19,183 to 184,C[C@@H](c1ccc(-c2cc(=O)n(C)cc2F)cc1)N1CC[C@](CC(C)(C)O)(c2ccccc2)OC1=O
20,162 to 165,CC(C)(C)c1cc(CNC(=O)Nc2cccc(C(F)(F)F)c2)nn1-c1ccc(S(C)(=O)=O)cc1
21,130 to 135,CCS(=O)(=O)c1ccc(SC2SCC(O)C(O)C2O)cc1 (stereo unspecified)

row,Structure (SMILES),melting point [°C]
1,CN(C)Cc1nc(C#N)nn1-c1ccc(Cl)cc1C(=O)c1ccccc1Cl,117 to 119
2,CN1C(=O)CN=C(c2ccccc2)c2cc(CN)ccc21,201
3,O=c1[nH]nc2n1-c1ccc(Cl)nc1C(c1ccccc1Cl)=NC2O (stereo unspecified),260 to 262
4,Cc1cc2n(n1)-c1ccc(Cl)cc1C(c1ccccc1)=NC2,105 to 107
5,Cc1ncc2n1-c1ccccc1N(c1ccccc1)C(=O)C2,217 to 220
6,Cc1c(C2=CCC(Cc3ccccc3)(N(C)C)CC2)[nH]c2ccc(F)cc12 (stereo unspecified),62 to 65
7,CCCCCOc1ccc(C(=O)c2cccc3ccccc23)c2ccccc12,72 to 75
8,OCCOC12CC(CO)CNC1Cc1c[nH]c3cccc2c13 (stereo unspecified),198 to 205
